Results on 27 compounds are retold here after PubChem BioAssay AID743317 (Broad Institute, 2014).

SMILES strings stand for the structures. Records with an inconclusive call do not appear. The source made the active and inactive calls.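 The calls were made as follows: active = fitted curve reaches 40% activation at or below the top valid dose, and every replicate test is called active; inconclusive = replicate tests disagree, some active and some inactive; inactive = all replicate tests inactive, including activity in the wrong direction.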

The target in one assay is Endoplasmic reticulum aminopeptidase 1 (Homo sapiens) (UniProt Q9NZ08). The assay can be described thus: ERAP1 aminopeptidase activity change, dose response, biochemical, fluorescence, cherry-pick (AID 743317). Conditions: ERAP1 enzyme, Leu-AMC fluorescence, 60 min.
Endoplasmic reticulum aminopeptidase 1 (Homo sapiens), sequence (Q9NZ08 whole entry, looked up): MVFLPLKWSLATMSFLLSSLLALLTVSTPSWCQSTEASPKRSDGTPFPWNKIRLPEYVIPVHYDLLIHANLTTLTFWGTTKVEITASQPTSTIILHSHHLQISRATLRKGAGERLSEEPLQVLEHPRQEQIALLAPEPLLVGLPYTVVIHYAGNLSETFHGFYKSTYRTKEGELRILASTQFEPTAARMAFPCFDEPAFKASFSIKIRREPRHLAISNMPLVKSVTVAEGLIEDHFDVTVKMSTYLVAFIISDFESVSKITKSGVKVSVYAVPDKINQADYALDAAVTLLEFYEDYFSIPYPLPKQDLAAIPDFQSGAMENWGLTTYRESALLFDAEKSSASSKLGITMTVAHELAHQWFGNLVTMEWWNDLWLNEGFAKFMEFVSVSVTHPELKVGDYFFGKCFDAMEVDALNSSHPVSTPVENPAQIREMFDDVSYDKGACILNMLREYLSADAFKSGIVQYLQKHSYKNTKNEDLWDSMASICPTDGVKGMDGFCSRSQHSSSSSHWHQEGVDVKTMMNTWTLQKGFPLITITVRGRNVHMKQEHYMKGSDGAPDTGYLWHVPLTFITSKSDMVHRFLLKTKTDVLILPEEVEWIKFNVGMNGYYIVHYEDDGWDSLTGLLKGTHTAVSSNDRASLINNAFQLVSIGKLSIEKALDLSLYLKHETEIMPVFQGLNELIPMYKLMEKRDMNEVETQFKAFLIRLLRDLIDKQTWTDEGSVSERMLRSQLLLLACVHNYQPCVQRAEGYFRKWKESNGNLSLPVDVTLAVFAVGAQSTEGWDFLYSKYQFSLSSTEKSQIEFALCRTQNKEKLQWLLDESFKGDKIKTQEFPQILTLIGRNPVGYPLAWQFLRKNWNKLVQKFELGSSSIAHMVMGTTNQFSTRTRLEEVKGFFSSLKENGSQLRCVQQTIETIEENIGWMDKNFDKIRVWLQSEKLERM
Turning to `C[C@@H]1CCCCO[C@@H](CN(C)C)[C@@H](C)CN([C@@H](C)CO)C(=O)c2cc(NS(=O)(=O)c3ccc(Cl)cc3)ccc2O1`, the AC40 was 636 nM.

Consider `Cc1noc(C)c1S(=O)(=O)N(C)C[C@@H]1OCCCC[C@@H](C)Oc2ccc(NS(=O)(=O)c3cccs3)cc2C(=O)N([C@@H](C)CO)C[C@@H]1C`, for which the AC40 is below 80 nM.

Regarding `C[C@@H]1CN([C@H](C)CO)C(=O)c2cc(NC(=O)Nc3ccc(F)cc3)ccc2O[C@H]1CN(C)Cc1ccc(C(=O)O)cc1`, the AC40 was 484 nM.

As to `COc1ccc(CN(C)C[C@H]2OCCCC[C@@H](C)Oc3ccc(NS(=O)(=O)c4cccs4)cc3C(=O)N([C@@H](C)CO)C[C@H]2C)cc1`, the AC40 is 1110 nM.

Consider `CNC[C@H]1Oc2c(NC(=O)Nc3ccc(C(F)(F)F)cc3)cccc2C(=O)N([C@@H](C)CO)C[C@@H]1C`, for which the AC40 was 646 nM.

For the compound `COc1ccc(NC(=O)Nc2ccc3c(c2)C(=O)N([C@@H](C)CO)C[C@@H](C)[C@H](CN(C)Cc2ccc(C(=O)O)cc2)OCCCC[C@H](C)O3)cc1`, the AC40 is 3740 nM.

Take `Cc1cc(=O)oc2cc(OCC(=O)N3CCN(C(C)c4ccccc4)CC3)c(Cl)cc12` (configuration not stated): the AC40 is 6220 nM.

Take `COc1ccc(C2=NN(c3ccc(C(=O)O)cc3)C(c3ccc(OC)c(OC)c3)C2)cc1` (configuration not stated): the AC40 is 442 nM.

`COc1ccc(NC(=O)Nc2ccc3c(c2)C(=O)N([C@@H](C)CO)C[C@@H](C)[C@@H](CN(C)Cc2ccc(C(=O)O)cc2)OCCCC[C@@H](C)O3)cc1`: the AC40 is below 80 nM.

In the case of `CCCN(C)C[C@@H]1OCCCC[C@@H](C)Oc2ccc(NS(=O)(=O)c3ccc(OC)cc3)cc2C(=O)N([C@H](C)CO)C[C@@H]1C`, the AC40 was 812 nM.

On to `CCCNC(=O)C[C@@H]1CC[C@@H]2[C@H](COC[C@H](O)CN2C(=O)Nc2cccc(Cl)c2)O1`, for which the AC40 is 6770 nM.

Regarding `C[C@@H]1CCCCO[C@@H](CN(C)C)[C@@H](C)CN([C@@H](C)CO)C(=O)c2cc(NS(=O)(=O)c3ccc(F)cc3)ccc2O1`, the AC40 was 454 nM.

For `O=S(=O)(O)c1ccc(N2N=C(c3ccccc3)CC2c2ccccc2)cc1` (configuration not stated), the AC40 is 4310 nM.

On to `CO[C@@H]1CN(C)C(=O)c2ccc(NC(=O)Nc3cccc(Cl)c3)cc2OC[C@@H](C)NC[C@H]1C`, for which the AC40 is 1410 nM.

Consider `Cc1ccc2nc3c(cc(C(=O)NCc4ccccc4)c(=N)n3CCCn3ccnc3)c(=O)n2c1`, for which the AC40 was 8840 nM.

Take `C[C@@H]1CCCCO[C@H](CN(C)Cc2ccccc2)[C@H](C)CN([C@H](C)CO)C(=O)c2cc(NS(=O)(=O)c3ccccc3)ccc2O1`: the AC40 is 358 nM.

Regarding `C[C@@H]1CCCCO[C@H](CN(C)Cc2ccccc2)[C@H](C)CN([C@@H](C)CO)C(=O)c2cc(NS(=O)(=O)c3cccs3)ccc2O1`, the AC40 was 607 nM.

Still in this assay, the particulars now being: ERAP1 enzyme, Leu-AMC fluorescence, 60 min; at 11 µM (top of the series).
With `COc1ccc(-c2cc3ccc(O)cc3oc2=O)cc1`, the activity increase (activation) was -75.7% (inactive).

In the case of `CC1CCCC(C)N1CCCNC(=O)c1cc2c(s1)-c1ccccc1OC2` (configuration not stated), the activity increase (activation) was -45.6% (inactive).

Regarding `CCCCc1cc(=O)oc2cc(O)ccc12`, the activity increase (activation) was -62.4% (inactive).

`Cc1c(C)c2ccc(O)c(CN3CCCC3)c2oc1=O`: the activity increase (activation) was -57% (inactive).

Take `CCOC(=O)C[n+]1ccc2c([nH]c3ccccc32)c1C`: the activity increase (activation) is -38.3% (inactive).

Take `O=c1oc2c(CN3CCN(CCO)CC3)c(O)ccc2cc1-c1ccccn1`: the activity increase (activation) is -80.1% (inactive).

Regarding `CCN(CC)Cc1c(O)ccc2cc(-c3nc4ccccc4n3C)c(=O)oc12`, the activity increase (activation) was -105% (inactive).

For `CCN(CCCl)c1cc(CN(C)C)cc(NC(=O)c2ccc(C(=O)Nc3cc(CN(C)C)cc(N(CC)CCCl)c3)cc2)c1`, the activity increase (activation) is -76% (inactive).

As to `O=c1ccc2cc(O[C@@H]3O[C@H](CO)[C@@H](O)[C@H](O)[C@H]3O)c(O)cc2o1`, the activity increase (activation) was -98.9% (inactive).

Consider `Cc1cc(=O)oc2c(CN3CCCC3)c(O)c(Cl)cc12`, for which the activity increase (activation) was -73.8% (inactive).
